Assay results as given in US20110190263A1, “COMPOUNDS AND COMPOSITIONS AS MODULATORS OF GPR119 ACTIVITY” (IRM LLC, priority 2008, published 2011).

Molecular target: T1, human GPR119 (Homo sapiens, UniProt Q8TDV5)
T1 construct: expressed in transfected cells
T1 sequence (Q8TDV5 1-335): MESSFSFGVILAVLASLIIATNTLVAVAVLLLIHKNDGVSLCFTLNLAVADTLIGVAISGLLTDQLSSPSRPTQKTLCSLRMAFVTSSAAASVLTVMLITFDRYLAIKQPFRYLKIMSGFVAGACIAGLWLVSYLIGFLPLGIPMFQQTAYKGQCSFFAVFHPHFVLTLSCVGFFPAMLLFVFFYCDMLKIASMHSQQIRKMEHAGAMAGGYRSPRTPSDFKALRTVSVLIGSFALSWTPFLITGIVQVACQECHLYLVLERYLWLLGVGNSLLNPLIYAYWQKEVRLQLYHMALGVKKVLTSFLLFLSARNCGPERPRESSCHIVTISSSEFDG
Assay: Cyclic AMP assay in stable cell line (Flp-In-CHO-hGPR119, HTRF)
Assay type: cell-based
Conditions: Flp-In-CHO-hGPR119 cells, intracellular cAMP by HTRF, 1 mM IBMX, 37° C. for 30 minutes
Description: Flp-In-CHO cells (Invitrogen, Cat.# R758-07) are maintained in Ham's F12 medium supplemented with 10% fetal bovine serum, 1% antibiotic mixture and 2 mM L-glutamine. The cells are transfected with a DNA mixture containing human GPR119 in pcDNA5/FRT vector and the pOG44 vector (1:9) using Fugene6 (Roche), according to the manufacturer's instruction. After 48 hours, the medium is changed to medium supplemented with 400 μg/ml hygromycin B to initiate the selection of stably transfected cells.
To test the activity of compounds of the invention, Flp-In-CHO-hGPR119 cells are harvested and resuspended in DMEM plus 3% lipid-depleted fetal bovine serum. Forth μl of cells are plated in 384 well plates at a density of 15,000 cells/well. IBMX (3-isobutyl-1-methyl-xanthine) is added to the cells to a final concentration of 1 mM, followed by the addition of 500 nl of the compound to be tested. The cells are incubated at 37° C. for 30 minutes. Equal volume (20 μl) of the HTRF reagents, anti-cAMP-Cryptate and cAMP-XL665, are added to the cells. The plates are incubated at room temperature for 1 hour and read on a HTRF reader according to the manufacturer's instruction.

Compound | EC50 [nM]
CC(C)OC(=O)N1CCC(CCCCOC2=NCCC3CN(S(C)(=O)=O)CCC23)CC1 (centres unmarked) [Example A8, isopropyl 4-(4-(6-(methylsulfonyl)-3,4,4a,5,6,7,8,8a-octahydro-2,6-naphthyridin-1-yloxy)butyl)piperidine-1-carboxylate] | 137
CC(C)OC(=O)N1CCC(Oc2nccc3c2CCN(S(C)(=O)=O)C3)CC1 [Example A4, isopropyl 4-(6-(methylsulfonyl)-5,6,7,8-tetrahydro-2,6-naphthyridin-1-yloxy)piperidine-1-carboxylate] | 3710
CC1(OC(=O)N2CCC(CCCOc3ncc4c(n3)CCN(S(C)(=O)=O)C4)CC2)CC1 [Example D2, 1-Methylcyclopropyl 4-(3-(6-(methylsulfonyl)-5,6,7,8-tetrahydropyrido[4,3-d]pyrimidin-2-yloxy)propyl)piperidine-1-carboxylate] | 2
CC1(OC(=O)N2CCC(CCCNc3ncc4c(n3)CCN(S(C)(=O)=O)C4)CC2)CC1 [Example D7, 1-methylcyclopropyl 4-(3-(6-(methylsulfonyl)-5,6,7,8-tetrahydropyrido[4,3-d]pyrimidin-2-ylamino)propyl)piperidine-1-carboxylate] | 8
CC(C)OC(=O)N1CCC(CCCCOc2nccc3c2CCN(S(C)(=O)=O)C3)CC1 [Example A9, isopropyl 4-(4-(6-(methylsulfonyl)-5,6,7,8-tetrahydro-2,6-naphthyridin-1-yloxy)butyl)piperidine-1-carboxylate] | 191
CCc1cnc(-c2ccc(CCCOc3ncc4c(n3)CCN(S(C)(=O)=O)C4)cc2)nc1 [Example G15, 5-ethyl-2-{4-[3-({6-methanesulfonyl-5H,6H,7H,8H-pyrido[4,3-d]pyrimidin-2-yl}oxy)propyl]phenyl}pyrimidine] | 366
CS(=O)(=O)N1CCc2nc(OCCCc3ccc(-n4cccn4)nc3)ncc2C1 [Example G16, 5-[3-({6-methanesulfonyl-5H,6H,7H,8H-pyrido[4,3-d]pyrimidin-2-yl}oxy)propyl]-2-(1H-pyrazol-1-yl)pyridine] | 1020
CS(=O)(=O)N1CCc2nc(CNCCc3cccc(Br)c3)ncc2C1 [Example B3, 2-(3-bromophenyl)-N-((6-(methylsulfonyl)-5,6,7,8-tetrahydropyrido[4,3-d]pyrimidin-2-yl)methyl)ethanamine] | 2440
CC(C)OC(=O)N1CCC(N2CCC3CN(S(C)(=O)=O)CCC3C2=O)CC1 (centres unmarked) [Example A5, isopropyl 4-(6-(methylsulfonyl)-1-oxooctahydro-2,6-naphthyridin-2(1H)-yl)piperidine-1-carboxylate] | 4360
CN(CCCC1CCN(C(=O)OC2(C)CC2)CC1)c1ncc2c(n1)CCN(S(C)(=O)=O)C2 [Example D8, 1-methylcyclopropyl 4-(3-(methyl(6-(methylsulfonyl)-5,6,7,8-tetrahydropyrido[4,3-d]pyrimidin-2-yl)amino)propyl)piperidine-1-carboxylate] | 10
CC1(OC(=O)N2CCC(CCOCc3ncc4c(n3)CCN(S(C)(=O)=O)C4)CC2)CC1 [Example C1, 1-Methylcyclopropyl 4-(2-((6-(methylsulfonyl)-5,6,7,8-tetrahydropyrido[4,3-d]pyrimidin-2-yl)methoxy)ethyl)piperidine-1-carboxylate] | 514
CC(C)OC(=O)N1CCC(CCCCn2ccc3c(c2=O)CCN(S(C)(=O)=O)C3)CC1 [Example A7, isopropyl 4-(4-(6-(methylsulfonyl)-1-oxo-5,6,7,8-tetrahydro-2,6-naphthyridin-2(1H)-yl)butyl)piperidine-1-carboxylate] | 94

Further lines, results first:

EC50 [nM] | Compound
212 | CCc1cnc(N2CCC(OCCOc3ncc4c(n3)CCN(S(C)(=O)=O)C4)CC2)nc1 [Example E1, 2-(2-(1-(5-ethylpyrimidin-2-yl)piperidin-4-yloxy)ethoxy)-6-(methylsulfonyl)-5,6,7,8-tetrahydropyrido[4,3-d]pyrimidine]
5 | CCc1cnc(N2CCC(CCCOc3ncc4c(n3)CCN(S(=O)(=O)CCCO)C4)CC2)nc1 [Example D9, 3-(2-{3-[1-(5-ethylpyrimidin-2-yl)piperidin-4-yl]propoxy}-5H,6H,7H,8H-pyrido[4,3-d]pyrimidine-6-sulfonyl)propan-1-ol]
22 | CC(C)(C)OC(=O)N1CC(OCC2CCN(c3ncc4c(n3)CCN(S(C)(=O)=O)C4)CC2)C1 [Example G7]
174 | C[C@H]1CN(C(=O)OC2(C)CC2)CC[C@H]1COC1CN(c2ncc3c(n2)CCN(S(C)(=O)=O)C3)C1 [Example J2, 1-methylcyclopropyl(3R,4R)-4-{[(1-{6-methanesulfonyl-5H,6H,7H,8H-pyrido[4,3-d]pyrimidin-2-yl}azetidin-3-yl)oxy]methyl}-3-methylpiperidine-1-carboxylate]
9 | CCc1cnc(N2CCC(COC3CN(c4ncc5c(n4)CCN(S(C)(=O)=O)C5)C3)CC2)nc1 [Example G1, 2-(3-((1-(5-Ethylpyrimidin-2-yl)piperidin-4-yl)methoxy)azetidin-1-yl)-6-(methylsulfonyl)-5,6,7,8-tetrahydropyrido[4,3-d]pyrimidine]
711 | CO[C@H]1CN(C(=O)OC2(C)CC2)CC[C@H]1COC1CN(c2ncc3c(n2)CCN(S(C)(=O)=O)C3)C1 (racemic) [Example J1, (±)-(3R,45)-1-Methylcyclopropyl 3-methoxy-4-((1-(6-(methylsulfonyl)-5,6,7,8-tetrahydropyrido[4,3-d]pyrimidin-2-yl)azetidin-3-yloxy)methyl)piperidine-1-carboxylate]
49 | CCc1cnc(N2CCc3c(cccc3OC3CN(c4ncc5c(n4)CCN(S(C)(=O)=O)C5)C3)C2)nc1 [Example I1, 2-(3-(2-(5-Ethylpyrimidin-2-yl)-1,2,3,4-tetrahydroisoquinolin-5-yloxy)azetidin-1-yl)-6-(methylsulfonyl)-5,6,7,8-tetrahydropyrido[4,3-d]pyrimidine]
7 | CCc1cnc(N2CCC(CCCNc3ncc4c(n3)CCN(S(C)(=O)=O)C4)CC2)nc1 [Example D5, N-(3-(1-(5-Ethylpyrimidin-2-yl)piperidin-4-yl)propyl)-6-(methylsulfonyl)-5,6,7,8-tetrahydropyrido[4,3-d]pyrimidin-2-amine]
170 | CC(C)c1noc(N2CCC(COC3CN(c4ncc5c(n4)CCN(S(C)(=O)=O)C5)C3)CC2)n1 [Example G11]
317 | CCc1cnc(N2CCC(COC3CCN(c4ncc5c(n4)CCN(S(C)(=O)=O)C5)CC3)CC2)nc1 [Example G9]
28 | CC1(OC(=O)N2CCC(COC3CN(c4ncc5c(n4)CCN(S(C)(=O)=O)C5)C3)CC2)CC1 [Example G6]
27 | CCc1cnc(N2CCC(CCCOc3ccc4c(n3)CCN(S(C)(=O)=O)C4)CC2)nc1 [Example F1, 2-(3-(1-(5-Ethylpyrimidin-2-yl)piperidin-4-yl)propoxy)-6-(methylsulfonyl)-5,6,7,8-tetrahydro-1,6-naphthyridine]
6 | CC(C)c1noc(N2CCC(CCCNc3ncc4c(n3)CCN(S(C)(=O)=O)C4)CC2)n1 [Example D4, N-(3-(1-(3-isopropyl-1,2,4-oxadiazol-5-yl)piperidin-4-yl)propyl)-6-(methylsulfonyl)-5,6,7,8-tetrahydropyrido[4,3-d]pyrimidin-2-amine]
183 | CCc1cnc(N2CCC(C(C)OC3CN(c4ncc5c(n4)CCN(S(C)(=O)=O)C5)C3)CC2)nc1 (racemic) [Example H1, (±)-2-(3-(1-(1-(5-Ethylpyrimidin-2-yl)piperidin-4-yl)ethoxy)azetidin-1-yl)-6-(methylsulfonyl)-5,6,7,8-tetrahydropyrido[4,3-d]pyrimidine]
666 | CCc1cnc(N2CCC(COCC3CN(c4ncc5c(n4)CCN(S(C)(=O)=O)C5)C3)CC2)nc1 [Example G5]
4 | CCc1cnc(N2CCC(CCCOc3ncc4c(n3)CCN(S(C)(=O)=O)C4)CC2)nc1 [Example D3, 2-(3-(1-(5-Ethylpyrimidin-2-yl)piperidin-4-yl)propoxy)-6-(methylsulfonyl)-5,6,7,8-tetrahydropyrido[4,3-d]pyrimidine]
122 | CC1(OC(=O)N2CCC(Cc3cn(-c4ncc5c(n4)CCN(S(C)(=O)=O)C5)cn3)CC2)CC1 [Example G18, 1-methylcyclopropyl 4-[(1-{6-methanesulfonyl-5H,6H,7H,8H-pyrido[4,3-d]pyrimidin-2-yl}-1H-imidazol-4-yl)methyl]piperidine-1-carboxylate]
